One molecule from PMC12261233, “Photoactivatable Cyclometalated Ir(III) Compound Penetrates the Blood-Brain Barrier in 3D Spheroidal and Advanced 3D Organoid Models of Inherently Resistant and Aggressive Brain Tumors” (ACS Pharmacology & Translational Science, 2025) can be followed below.

Experiment [1] deals with U87MG cells. In words: Iridium uptake in Transwell binary coculture BBB model (ICP-MS), U87MG. The following applies: 24 h. In kind it is cell-based, human. The procedure:
The cellular uptake of anticancer compounds after penetrating the BBB is crucial for their efficacy in treating brain tumors. Understanding the extent of cellular uptake provides insights into the distribution and localization of these compounds within brain tumor cells, making such studies essential for assessing their potential efficacy. We utilized the static Transwell binary coculture BBB model, comprising an […] hCMEC/D3 cell line (representing the BBB) and a glioblastoma U87MG cell line. In this model, hCMEC/D3 cells were seeded on the apical side of the Transwell, while U87MG cells were seeded on the basolateral side. […] After a 24-h incubation, cells were harvested, counted, and the iridium uptake by both cell lines was analyzed using ICP-MS. […]
To confirm that the tested compounds can effectively target and accumulate in the desired U87MG glioblastoma cells, a coculture model was employed to monitor cellular uptake in both hCMEC/D3 cells and U87MG cells. […] The total iridium uptake by U87MG or hCMEC/D3 cells was analyzed 24 h after treatment. In brief, the apical and basolateral parts were separated, and each cellular model was harvested by trypsinization, pelleted by centrifugation, and counted. […] The final iridium content was determined through ICP-MS analysis. The experiments were replicated in triplicate, and the data are expressed as nanograms of iridium per one million cells.

Experiment [2] has as its system U87MG spheroids. Briefly: Morphology and diameter of spheroids after treatment and irradiation (phase contrast). It is filed as cell-based, human. The following applies: 90 min treatment, 30 min blue light, 70 h drug-free incubation. The procedure:
We further investigated the effects of treatment and irradiation on tumor spheroids by analyzing the morphology and diameter of spheroids from the U87MG cell line. Morphogenic parameters were assessed using phase contrast microscopy at 24-h intervals during the preformation phase and post-treatment, culminating at 144 h. Initial mean diameters of the spheroids were 280 ± 11 μm, increasing to 550 μm after 70 h of drug-free incubation. U87MG spheroids proliferated rapidly. Rapidly growing tumor cells are generally more sensitive to treatment, whereas quiescent tumor cells are moderately sensitive to metal-based compounds.
The spheroid models underwent treatment with varying concentrations of compounds, focusing on equitoxic concentrations during blue light exposure. The analysis included both irradiated and nonirradiated samples to assess nonspecific toxicity under dark conditions. […]
Figure S30. […] Phase contrast microphotographs were obtained for spheroids generated from U87MG cells (panel A), and the respective mean diameters were analyzed and shown in panel B for U87MG spheroids. […] Mean diameters for dark-incubated samples were analyzed at the same concentrations as those for irradiated samples to assess the impact of irradiation. […]

With `CCCCn1c2[n+](c3cc(C(=O)OC)ccc31)[Ir-3]13([Cl])([c]4ccccc4-2)[n+]2ccccc2-c2cc(-c4ccc(C)cc4)cc([n+]21)-c1cccc[n+]13.F[P-](F)(F)(F)(F)F` [Ir4], the “iridium uptake by U87MG cells” value in experiment [1] (10 μM applied apically, binary coculture BBB model, basolateral cells) amounted to 108 ± 14 ng Ir/10^6 cells. Moreover, the “accumulation in U87MG cells compared to hCMEC/D3 cells” value in experiment [1] (10 μM, coculture) is on record as “more than 2 fold”. Moreover, the “effect on spheroid diameter / growth” value in experiment [2] is recorded as “spheroid diameters decreased below their initial size”.
